Peptide text beside a SMILES is read from it.
How the values were obtained:
[1] = test system: standardized large cartilage defects; settings: in vivo; cited from earlier work
[2] = test system: subjects with bilateral patello-femoral knee osteoarthritis; assay: Randomized double-blind placebo-controlled study of TPX-100 in patients with osteoarthritis of the knees (Example 1); assay type: in vivo, human
Procedure: A multicenter, randomized double-blind, placebo-controlled study was designed to investigate the safety, tolerability, pharmacokinetics, and efficacy of TPX-100 administered in four weekly doses in subjects with bilateral patello-femoral knee osteoarthritis. The study was conducted under an open IND (investigational new drug application) at CDER (Center for Drug Evaluation and Research) of the U.S. FDA (The United States Food and Drug Administration) in compliance with GCP (Good Clinical Practice) and ICH (International Conference on Harmonization of Technical Requirements for Registration of Pharmaceuticals for Human Use) guidelines. Eighteen (18) orthopedic, rheumatologic and family practice centers in the U.S. participated in the study.
The study was divided into Part A and Part B. The Part A was designed to evaluate safety of intra-articular (I.A.) administration of TPX-100 at different dosing levels (20, 50, 100, or 200 mg per injection in sequential cohorts) in the subjects with osteoarthritis of the knees and to select a dose for Part B. Part B was to evaluate safety and efficacy of the selected dose of TPX-100.
Subjects in Part A were enrolled in sequential cohorts and randomized to receive 20, 50, 100 or 200 mg of TPX-100 in one knee (Index Knee) and identical placebo in the contralateral (Control) knee. Subjects, sites and sponsor and central MRI readers were blinded as to treatment assignment. A Safety Review Committee (SRC) evaluated safety in each dosing cohort. The SRC assessed safety and determined whether the next higher dosing regimen could be enrolled. All dosing cohorts in Part A were completed and analyzed with regard to safety prior to dose selection and initiation of Part B.
Part A included four (4) intra-articular (I.A.) injections, one per week, in sequential dosing cohorts of 20, 50, 100 and 200 mg TPX-100 versus placebo. Six (6) subjects were enrolled in 20, 50, and 100 mg cohorts, respectively, and nine (9) subjects were enrolled in the 200 mg cohort.
The 200 mg dose was selected for Part B based on safety review and the approval of the SRC. […] Per the Statistical Analysis Plan, these subjects were combined with the nine subjects in the 200 mg cohort of Part A for the efficacy analysis. In total, data from 93 subjects was analyzed for drug efficacy, each of whom received 4 once-weekly injections of TPX-100, 200 mg/dose, in the Index knee and identical placebo in the contralateral knee, as randomly assigned. […]
If all clinical inclusion and exclusion criteria were met, MRIs of both knees were obtained and evaluated by a central reader to determine the ICRS grade (gICRS) of each knee as the final screening criterion. […]

defects in human molar = settings: both Phase 2 studies (alveolar bone and dentin); cited from earlier work
[3] = test system: human osteoblastic mesenchymal stem cells; settings: U.S. Pat. Nos. 7,888,462 and 8,426,558; cited from earlier work
[4] = human, in vivo; cited from earlier work

CC[C@H](C)[C@H](NC(=O)[C@H](CC(=O)O)NC(=O)[C@H](CC(N)=O)NC(=O)[C@H](CC(=O)O)NC(=O)CNC(=O)[C@H](CCCNC(=N)N)NC(=O)[C@H](CCC(=O)O)NC(=O)[C@H](CCC(N)=O)NC(=O)[C@H](CC(C)C)NC(=O)[C@H](CC(=O)O)NC(=O)[C@@H](N)[C@@H](C)O)C(=O)N[C@@H](CO)C(=O)N1CCC[C@H]1C(=O)N[C@@H](Cc1ccccc1)C(=O)N[C@@H](CO)C(=O)NCC(=O)N[C@@H](CC(=O)O)C(=O)NCC(=O)N[C@@H](CCC(N)=O)C(=O)N1CCC[C@H]1C(=O)N[C@@H](Cc1ccccc1)C(=O)N[C@@H](CCCCN)C(=O)N[C@@H](CC(=O)O)C(N)=O [TPX-100] (H-TDLQERGDNDISPFSGDGQPFKD-NH2; N-terminus assumed)
Safety and tolerability [1]: safe and well-tolerated | Dose-limiting toxicities ([2]; Part A, 20, 50, 100 and 200 mg per injection): no dose-limiting toxicities | Severe adverse events ([2]; human, in vivo): no severe adverse events that were related to TPX-100 treatment | Treatment-related adverse events ([2]; human, in vivo): mild or moderate, transient | Safety and tolerability ([2]; intra-articular, Days 0, 7, 14, 21): safe and well tolerated | Tolerability (defects in human molar): well tolerated in both studies

PDLLVRGDNDVPPFSGDGQHFMH [rat orthologue, TPX-100 orthologue (Rat/Mouse)]
Tritium-thymidine incorporation [3]: promote tritium-thymidine incorporation

N#Cc1c(N(CC(=O)[O-])CC(=O)[O-])sc(C(=O)[O-])c1CC(=O)[O-].[Sr+2].[Sr+2] [strontium ranelate]
Adverse effect [4]: increase the risk of myocardial infarction
